# Data published in US20120190723A1, “VIRAL MODULATORS AND PROCESSES THEREOF” (priority 2010, published 2012).
# “Also recorded” adds a separate entry of the source. Counter-ions that a name gives are not always drawn. Like-named read-outs stand apart in the source and are kept apart here. Starred links: 1 amine or outer side, 2 acyl side, 3 side chain; linkers in the order of their positions; H or OH if unused. Positions of bridges follow the written chain, without caps; N, C: chain ends. Non-standard residues stand in square brackets, D forms with d. Residues, ends and D or L forms follow the SMILES beside them. Chains are numbered I, II in the order given. Actinocin(9to1) = Cc1c2oc3c(C)ccc(C(=O)[*:1])c3nc-2c(C(=O)[*:2])c(N)c1=O; NMeV = CN[C@H](C(=O)O)C(C)C; Sar = CNCC(=O)O
# Experiments:
# [1] = test system: HIV-1 LTR Tat dependent transcription; conditions: TZM-bl cells transfected with Tat, compared to the DMSO control
# U87MG astrocytes = conditions: for cellular viability of BIO analogs: 1 μM
# VEEV TC-83 [2] = format: cell-based, Venezuelan Equine Encephalitis Virus; conditions: 1 μM
# HIV-1 dual tropic 89.6 [3] = experiment: HIV-1 89.6 replication in primary monocyte/macrophages (RT assay); format: cell-based; conditions: Human immunodeficiency virus 1, Primary macrophage, 168 h; 89.6 infection, RT day 7
# HIV-1 dual tropic 89.6 [4] = experiment: HIV-1 89.6 replication in U87MG cells (RT assay); format: cell-based; conditions: Human immunodeficiency virus 1, U-87 MG, 168 h; 89.6 infection, RT day 7
# [5] = test system: monocyte/macrophage from two healthy donors and U87MG; experiment: MTT toxicity in monocyte/macrophages and U87MG; format: cell-based; conditions: primary cells or cell line
# [6] = test system: HIV-rtTA KWK (Tat+) and KYK (Tat−) clones; experiment: dox-dependent HIV-rtTA variants (KWK, KYK) in macrophages, RT assay; format: cell-based, HIV-1; conditions: BIOder 50 nM, dox 1000 ng/ml, RT day 10
# [7] = test system: Rat mixed hippocampal cultures exposed to Tat1-72; experiment: Tat neurotoxicity in rat mixed hippocampal cultures (MTT); format: cell-based; conditions: for protection against Tat mediated neurodegeneration: 1.0 and 3.0 uM, p<0.05, 500 nM Tat1-72, 18 hours; for neurotoxicity: 5.0 and 10.0 uM
# Experimental: After approximately 18 hours, cell survival may be measured by MTT assay. Statistical significance may be determined by ANOVA, followed by Newman-Keuls post hoc pair-wise comparisons.
# In some aspects of embodiments, rat mixed hippocampal cultures may be preincubated with BIO prior to exposure to Tat. Cell death may be analyzed approximately 18 hours after Tat exposure by MTT assay.
# VEEV TC-83 [8] = experiment: microbe, parasite or virus in culture; format: cell-based; conditions: Venezuelan equine encephalitis virus, U-87 MG, read-out: IC50, VEEV replication
# VEEV TC-83 [9] = experiment: microbe, parasite or virus in culture; format: cell-based, Venezuelan Equine Encephalitis Virus; conditions: for effect on VEEV induced CPE: 1 μM, 48 hours post infection
# survivin, BID = format: cell-based
# VEEV TC-83 [10] = format: in vivo, C3H/HeN mice; conditions: for survival rate: SQ days −1, 1, 3, 5, BIO 50 mg/kg, BIOder 20 mg/kg, 14 days, vehicle 10%; for survival differential: vs vehicle control
# [11] = in vivo
# in vitro = conditions: human
# GSK-3β [12] = molecular target: T1, GSK-3β (Homo sapiens, UniProt P49841); experiment: GSK-3β immunoprecipitation in vitro kinase assay (U937 cells)
# Target sequence in this assay (P49841 whole entry): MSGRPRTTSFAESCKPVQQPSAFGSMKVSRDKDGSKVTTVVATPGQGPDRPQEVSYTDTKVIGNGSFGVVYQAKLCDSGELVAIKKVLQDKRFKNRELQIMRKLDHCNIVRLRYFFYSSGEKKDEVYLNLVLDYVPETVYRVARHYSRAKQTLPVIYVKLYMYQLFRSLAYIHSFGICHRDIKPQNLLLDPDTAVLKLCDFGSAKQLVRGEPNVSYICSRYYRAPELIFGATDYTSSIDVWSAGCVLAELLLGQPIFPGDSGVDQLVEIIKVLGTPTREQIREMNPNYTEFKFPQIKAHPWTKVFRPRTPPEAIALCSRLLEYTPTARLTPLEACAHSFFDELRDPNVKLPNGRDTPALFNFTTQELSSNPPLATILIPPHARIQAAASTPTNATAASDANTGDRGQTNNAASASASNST
# GSK-3β [13] = molecular target: T1, GSK-3β; format: biochemical; parameters: Cells may be lysed and immunoprecipitated with control IgG and/or GSK-3β antibody; endogenous in cells
# Target sequence in this assay (P49841 whole entry, looked up): as the sequence (P49841 whole entry) above
# [14] = test system: HIV-1 LTR Tat dependent transcription; experiment: cells; conditions: Human immunodeficiency virus 1, TZM-bl, read-out: % Inhibition at 1 μM
structure (smiles),measurement,setting,value
O=C1Nc2ccccc2/C1=C1/Nc2ccccc2/C1=N\O [Indirubin-3′-oxime],% Inhibition at 1 μM,[1],25%
"O=C1Nc2ccc(Cl)cc2/C1=C1\C(=O)Nc2ccc(Br)cc21 [Compound 34, 5-bromo-5′-chloro-3,3′-biindole-2,2′(1H,1′H)-dione]",cellular viability of BIO analogs,U87MG astrocytes,decrease in cellular viability
"O=C1Nc2ccc(Br)cc2/C1=N/NC(=O)c1ccc(Cl)cc1Cl [Compound 16, N′-(5-bromo-2-oxo-1,2-dihydro-3H-indol-3-ylidene)-2,4-dichlorobenzohydrazide]",cellular viability of BIO analogs,U87MG astrocytes,decrease in cellular viability
"Cc1c(Cl)ccc2c1NC(=O)/C2=C1/C(=O)Nc2ccccc21 [Compound 38, 6-chloro-7-methyl-3,3′-biindole-2,2′(1H,1′H)-dione]",effect on VEEV (FIG. 11),VEEV TC-83 [2],VEEV activators
"Cc1cc2c(cc1Br)NC(=O)/C2=N/N=C1/C(=O)Nc2cc(Br)c(C)cc21 [Compound 6, 6-bromo-5-methyl-1H-indole-2,3-dione 3-[(6-bromo-5-methyl-2-oxo-1,2-dihydro-3H-indol-3-ylidene)hydrazone]]",IC50,HIV-1 dual tropic 89.6 [3],~4 nM
same,IC50,HIV-1 dual tropic 89.6 [4],~0.5 nM
same,Cytotoxic concentration (MTT),[5],> 10 µM
same,viral replication of KWK (Tat+) and KYK (Tat−) clones,[6],inhibited in the KWK (Tat+) and not KYK (Tat−) clone
same,protection against Tat mediated neurodegeneration,[7],protective effect
same,neurotoxicity,[7],no neurotoxicity observed
same,IC50,VEEV TC-83 [8],~500 nM
same,effect on VEEV induced CPE,VEEV TC-83 [9],inhibit CPE; also recorded: particularly strong inhibition
same,cellular viability of VEEV infected cells,"VEEV TC-83 [9]; 72 hours post-infection, all concentrations employed",relative increase in cellular viability
same,IC50,"VEEV TC-83 [9]; Venezuelan equine encephalitis virus, U-87 MG, read-out: IC50 for inhibition of VEEV induced CPE",< 100 nM
same,BID expression,"survivin, BID",relatively strong decrease
same,survivin expression,"survivin, BID",relative increase in the expression of survivin
same,survival rate,VEEV TC-83 [10],approximately 50%
same,survival differential,VEEV TC-83 [10],approximately 40%
same,cellular viability,U87MG astrocytes,no substantial effect on cellular viability
same,mouse weight,[11],substantially no treatment group showed weight loss
same,"signs of toxicity (lethargy, ruffling of coats, weight loss)",[11]; mouse,Substantially no signs of toxicity
same,CC50,in vitro,> 100000 nM
same,IC50,GSK-3β [12],~0.03 nM
same,inhibition of GSK-3β kinase activity,"GSK-3β [12]; at approximately 1 nM, glycogen synthase peptide 2 substrate",approximately 90%
same,GSK3-β kinase activity,GSK-3β [13],much more relatively dramatic influence
C=C[C@H]1CN2CC[C@H]1C[C@H]2[C@H](OC(=O)OCC)c1ccnc2ccc(OC)cc12 [Quinine ethyl carbonate],inhibition at 1 µM,[14],34%
COc1cccc2c1C(=O)c1c(O)c3c(c(O)c1C2=O)C[C@@](O)(C(=O)CO)C[C@@H]3O[C@H]1C[C@H](N)[C@@H](O)[C@H](C)O1 [Epirubicin hydrochloride],inhibition at 1 µM,[14],17%
"Cc1ccc2c(c1Br)C(=NNc1ccccc1)C(=O)N2 [Compound 17, 4-bromo-5-methyl-1H-indole-2,3-dione 3-(phenylhydrazone)]",effect on VEEV induced CPE,VEEV TC-83 [9],inhibit CPE
"Cc1ccc2c(c1Br)/C(=N/NC(=O)Nc1ccccc1)C(=O)N2 [Compound 5, 4-bromo-5-methyl-1H-indole-2,3-dione 3-(N-phenylsemicarbazone)]",effect on VEEV induced CPE,VEEV TC-83 [9],increase observed CPE
"O=C1Nc2cc(Br)ccc2/C1=C1/Nc2ccccc2/C1=N\O [BIO, 6-bromoindirubin-3′-oxime, reference compound]",protection against Tat mediated neurodegeneration,[7],significant neuroprotective effects
same,neurotoxicity,[7],neurotoxicity observed
same,LD50 (neurotoxicity),[7]; rat mixed hippocampal cultures,approximately 4 uM
same,survivin expression,"survivin, BID",relatively increase survivin expression
same,survival rate,VEEV TC-83 [10],~30%
same,survival differential,VEEV TC-83 [10],approximately 20%
"Cc1[nH]c2ccc(Br)cc2c1CC(=O)N/N=C1/C(=O)Nc2ccccc21 [Compound 21, 2-(5-bromo-2-methyl-1H-indol-3-yl)-N′-(2-oxo-1,2-dihydro-3H-indol-3-ylidene)acetohydrazide]",effect on VEEV (FIG. 11),VEEV TC-83 [2],VEEV activators
"Cc1cc(C(=O)N/N=C2\C(=O)Nc3ccc(Br)cc32)[nH]n1 [Compound 32, N′-(5-bromo-2-oxo-1,2-dihydro-3H-indol-3-ylidene)-3-methyl-1Hpyrazole-5-carbohydrazide]",cellular viability of BIO analogs,U87MG astrocytes,decrease in cellular viability
"COc1ccc(-c2cc(C(=O)N/N=C3/C(=O)Nc4ccc(Br)cc43)[nH]n2)cc1 [Compound 28, N′-(5-bromo-2-oxo-1,2-dihydro-3H-indol-3-ylidene)-3-(4-methoxyphenyl)-1H-pyrazole-5-carbohydrazide]",effect on VEEV induced CPE,VEEV TC-83 [9],inhibit CPE
"O=C1NC(=O)/C(=C2/C(=O)Nc3ccc(Br)cc32)N1 [Compound 33, 5-(5-bromo-2-oxo-1,2-dihydro-3H-indol-3-ylidene)-2,4-imidazolidinedione]",cellular viability of BIO analogs,U87MG astrocytes,decrease in cellular viability
"Cc1ccc2c(c1Br)/C(=N/O)C(=O)N2 [Compound 4, 4-bromo-5-methyl-1H-indole-2,3-dione 3-oxime]",effect on VEEV (FIG. 11),VEEV TC-83 [2],VEEV activators
"Cc1c2oc3c(C)ccc(C(=O)N[C@@H]4C(=O)N[C@H](C(C)C)C(=O)N5CCC[C@H]5C(=O)N(C)CC(=O)N(C)[C@@H](C(C)C)C(=O)O[C@@H]4C)c3nc-2c(C(=O)N[C@@H]2C(=O)N[C@H](C(C)C)C(=O)N3CCC[C@H]3C(=O)N(C)CC(=O)N(C)[C@@H](C(C)C)C(=O)O[C@@H]2C)c(N)c1=O [Dactiniomycin, Dactinomycin] (I: T[dV]P[Sar][NMeV] / II: T[dV]P[Sar][NMeV]; ester I:1-I:C, II:1-II:C; linker I:N-II:N via Actinocin(9to1))",inhibition at 1 µM,[14],98%
"O=C1Nc2c(Br)cc(Br)cc2/C1=N/NC(=O)c1cc(-c2ccccc2)n[nH]1 [Compound 24, N′-(5,7-dibromo-2-oxo-1,2-dihydro-3H-indol-3-ylidene)-3-phenyl-1Hpyrazole-5-carbohydrazide]",effect on VEEV induced CPE,VEEV TC-83 [9],increase observed CPE
"O=C1Nc2ccc(Br)cc2/C1=N\NC(=O)c1ccccc1NC(=O)c1ccccc1 [Compound 31, N-(2-{[2-(5-bromo-2-oxo-1,2-dihydro-3H-indol-3-ylidene)hydrazino]carbonyl}phenyl)benzamide]",effect on VEEV induced CPE,VEEV TC-83 [9],inhibit CPE
